Source: ChEMBL document CHEMBL1141016, “Orally bioavailable prodrugs of a BCS class 2 molecule, an inhibitor of HIV-1 reverse transcriptase” (Bioorg Med Chem Lett, 2008)
In brackets after ≈: the same amount, converted by molar mass.

Key:
[1] = Aqueous stability assessed as half life at pH 2; type: physicochemical
Rattus norvegicus [2] = test: Cmax in Hanover Wistar rat assessed as 5-(6-chloro-2-fluoro-3-((5-methyl-6-oxo-1,6-dihydropyridazin-3-yl)methyl)phenoxy)isophthalonitrile level at 50 mg/kg, po; type: ADME, organism-based; set-up: dose 50 mg/kg, route oral; conditions: in vivo
[3] = Aqueous stability assessed as half life at pH 6.5; type: physicochemical
Rattus norvegicus [4] = test: AUC (0 to 24 hrs) in Hanover Wistar rat assessed as 5-(6-chloro-2-fluoro-3-((5-methyl-6-oxo-1,6-dihydropyridazin-3-yl)methyl)phenoxy)isophthalonitrile level at 50 mg/kg, po; set-up: unit not given here; conditions: in vivo
Rattus norvegicus [5] = test: Tmax in Hanover Wistar rat assessed as 5-(6-chloro-2-fluoro-3-((5-methyl-6-oxo-1,6-dihydropyridazin-3-yl)methyl)phenoxy)isophthalonitrile level at 50 mg/kg, po; type: ADME, organism-based; set-up: dose 50 mg/kg, route oral; conditions: in vivo
[6] = Tmax in Hanover Wistar rat at 5 mg/kg, po; type: ADME, organism-based; set-up: dose 5 mg/kg, route oral; conditions: in vivo
[7] = Permeability across human Caco-2 cells; type: ADME, cell-based; conditions: read-out: permeability
Rattus norvegicus [8] = test: AUC (0 to 24 hrs) in Hanover Wistar rat at 50 mg/kg, po; conditions: in vivo
[9] = Cmax in Hanover Wistar rat at 50 mg/kg, po; type: ADME, organism-based; set-up: dose 50 mg/kg, route oral; conditions: in vivo
[10] = Dissociation constant, pKa of the compound; type: physicochemical
[11] = Aqueous solubility at pH 6.5; type: physicochemical
[12] = Cmax in Hanover Wistar rat at 5 mg/kg, po; type: ADME, organism-based; set-up: dose 5 mg/kg, route oral; conditions: in vivo
[13] = Tmax in Hanover Wistar rat at 50 mg/kg, po; type: ADME, organism-based; set-up: dose 50 mg/kg, route oral; conditions: in vivo
Rattus norvegicus [14] = test: AUC (0 to 24 hrs) in Hanover Wistar rat at 5 mg/kg, po; conditions: in vivo

half-life [1] [h] | Cmax (Rattus norvegicus [2]) [µM] | half-life [3] [h] | AUC (Rattus norvegicus [4]) | Tmax (Rattus norvegicus [5]) [h] | Tmax [6] [h] | Papp [7] [×10⁻⁶ cm/s] | AUC (Rattus norvegicus [8]) [uM.hr/ml] | Cmax [9] [µM] | pKa [10] | solubility [11] [µg/mL] | Cmax [12] [µM] | Tmax [13] [h] | AUC (Rattus norvegicus [14]) [uM.hr/ml] | Structure (SMILES)
38 | 6.3 | 1 | 93 | 4 | – | – | – | – | – | – | – | – | – | Cc1cc(Cc2ccc(Cl)c(Oc3cc(C#N)cc(C#N)c3)c2F)nn(COC(=O)CN)c1=O.Cl
1420 | 9.1 | 3.2 | 134 | 4 | – | – | – | – | – | – | – | – | – | Cc1cc(Cc2ccc(Cl)c(Oc3cc(C#N)cc(C#N)c3)c2F)nn(COC(=O)[C@@H](N)C(C)C)c1=O.Cl
17 | 7.3 | < 0.3 | 108 | 4.7 | – | – | – | – | – | – | – | – | – | Cc1cc(Cc2ccc(Cl)c(Oc3cc(C#N)cc(C#N)c3)c2F)nn(COC(=O)[C@@H]2CCCN2)c1=O.Cl
462 | 13.2 | 40 | 142 | 2.7 | – | – | – | – | – | – | – | – | – | Cc1cc(Cc2ccc(Cl)c(Oc3cc(C#N)cc(C#N)c3)c2F)nn(COC(=O)CCC(=O)O)c1=O
289 | 7.3 | 0.9 | 108 | 2 | – | – | – | – | – | – | – | – | – | Cc1cc(Cc2ccc(Cl)c(Oc3cc(C#N)cc(C#N)c3)c2F)nn(COC(=O)OCCN(C)C)c1=O.Cl

Further lines, the molecule ahead of its results:

Structure (SMILES) | half-life [1] [h] | Cmax (Rattus norvegicus [2]) [µM] | half-life [3] [h] | AUC (Rattus norvegicus [4]) | Tmax (Rattus norvegicus [5]) [h] | Tmax [6] [h] | Papp [7] [×10⁻⁶ cm/s] | AUC (Rattus norvegicus [8]) [uM.hr/ml] | Cmax [9] [µM] | pKa [10] | solubility [11] [µg/mL] | Cmax [12] [µM] | Tmax [13] [h] | AUC (Rattus norvegicus [14]) [uM.hr/ml]
Cc1cc(Cc2ccc(Cl)c(Oc3cc(C#N)cc(C#N)c3)c2F)nn(COC(=O)OCCN2CCOCC2)c1=O.Cl | 301 | 5.6 | 3.5 | 89 | 3.3 | – | – | – | – | – | – | – | – | –
Cc1cc(Cc2ccc(Cl)c(Oc3cc(C#N)cc(C#N)c3)c2F)nn(COC(=O)c2cccnc2)c1=O.Cl | 10 | 8.8 | 4.7 | 101 | 4.7 | – | – | – | – | – | – | – | – | –
Cc1cc(Cc2ccc(Cl)c(Oc3cc(C#N)cc(C#N)c3)c2F)nn(COP(=O)([O-])[O-])c1=O.[Na+].[Na+] | > 24 | 12.7 | > 24 | 178 | 8 | – | – | – | – | – | – | – | – | –
Cc1cc(Cc2ccc(Cl)c(Oc3cc(C#N)cc(C#N)c3)c2F)n[nH]c1=O | – | – | – | – | – | 3.7 | 19 | 20.3 | 1.5 | 10.5 | 0.3 (≈ 0.76 µM) | 0.96 | 3.3 | 6.8
